This note sets out measurements from PMC4580987, “Catalytic site inhibition of insulin-degrading enzyme by a small molecule induces glucose intolerance in mice” (Nature Communications, 2015).

≈ marks a conversion by molar mass, not a printed value. Entries after “also recorded” stand apart in the source; their conditions may differ. Where only a bound is given, the exact number is not on record here.

For one data set, the target named is T1, human ACE (Homo sapiens, UniProt P12821).
T1 construct: purchased R&D Systems
T1 sequence (P12821 30-1306): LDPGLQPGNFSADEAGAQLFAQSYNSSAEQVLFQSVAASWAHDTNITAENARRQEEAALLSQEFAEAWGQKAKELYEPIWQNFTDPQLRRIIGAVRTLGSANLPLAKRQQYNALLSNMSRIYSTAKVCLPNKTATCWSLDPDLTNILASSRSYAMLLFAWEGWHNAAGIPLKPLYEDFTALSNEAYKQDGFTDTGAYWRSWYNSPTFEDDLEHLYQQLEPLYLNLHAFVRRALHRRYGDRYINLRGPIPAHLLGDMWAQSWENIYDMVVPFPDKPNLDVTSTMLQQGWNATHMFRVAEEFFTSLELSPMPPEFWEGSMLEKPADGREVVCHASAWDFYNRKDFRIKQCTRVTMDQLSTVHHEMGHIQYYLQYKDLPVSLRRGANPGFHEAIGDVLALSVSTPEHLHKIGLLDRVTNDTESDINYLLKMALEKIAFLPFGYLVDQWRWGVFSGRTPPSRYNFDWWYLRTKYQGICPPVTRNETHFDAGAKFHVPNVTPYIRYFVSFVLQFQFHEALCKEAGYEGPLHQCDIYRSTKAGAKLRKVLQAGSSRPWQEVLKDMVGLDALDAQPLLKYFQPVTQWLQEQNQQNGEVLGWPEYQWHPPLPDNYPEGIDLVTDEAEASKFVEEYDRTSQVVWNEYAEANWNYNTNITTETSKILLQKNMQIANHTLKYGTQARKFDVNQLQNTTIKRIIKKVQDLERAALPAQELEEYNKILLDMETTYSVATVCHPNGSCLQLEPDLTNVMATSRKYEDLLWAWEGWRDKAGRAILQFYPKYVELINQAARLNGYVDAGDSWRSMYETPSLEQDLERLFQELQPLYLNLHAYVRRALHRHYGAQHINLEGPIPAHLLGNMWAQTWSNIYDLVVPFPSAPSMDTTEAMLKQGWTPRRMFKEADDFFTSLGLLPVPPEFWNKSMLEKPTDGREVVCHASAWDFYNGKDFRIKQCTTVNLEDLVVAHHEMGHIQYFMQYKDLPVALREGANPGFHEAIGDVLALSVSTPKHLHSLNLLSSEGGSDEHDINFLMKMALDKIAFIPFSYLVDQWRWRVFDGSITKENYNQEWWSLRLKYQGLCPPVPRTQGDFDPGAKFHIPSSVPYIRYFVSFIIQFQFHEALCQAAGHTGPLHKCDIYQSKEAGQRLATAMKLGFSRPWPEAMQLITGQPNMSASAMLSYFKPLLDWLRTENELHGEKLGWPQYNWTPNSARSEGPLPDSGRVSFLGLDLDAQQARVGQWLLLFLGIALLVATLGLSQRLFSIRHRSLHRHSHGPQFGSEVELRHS
The data set can be described thus: ACE selectivity assay. Format: biochemical. The note with it: >10 μM stands for <10% at 10 μM; read-out: Selectivity IC50 hACE. The procedure: Briefly, human NEP (R&D Systems; 200 ng ml^−1) was incubated 10 min at room temperature with compound in Hepes 50 mM, NaCl 100 mM, pH 7.4 and the enzymatic reaction started by adding the substrate (final concentration 200 μM). […] Briefly, human ACE (R&D Systems) was incubated 10 min at room temperature with compound in Tris 50 mM 1% NaCl pH 7.4 and the enzymatic reaction is started by adding the substrate (final concentration 300 μM). […] In vitro activity was assayed at CEREP.SA as follows.

In the next data set the target is T2, recombinant human ECE-1 (Homo sapiens, UniProt P42892).
T2 construct: host or cells: NSO cells
T2 sequence (P42892 1-770): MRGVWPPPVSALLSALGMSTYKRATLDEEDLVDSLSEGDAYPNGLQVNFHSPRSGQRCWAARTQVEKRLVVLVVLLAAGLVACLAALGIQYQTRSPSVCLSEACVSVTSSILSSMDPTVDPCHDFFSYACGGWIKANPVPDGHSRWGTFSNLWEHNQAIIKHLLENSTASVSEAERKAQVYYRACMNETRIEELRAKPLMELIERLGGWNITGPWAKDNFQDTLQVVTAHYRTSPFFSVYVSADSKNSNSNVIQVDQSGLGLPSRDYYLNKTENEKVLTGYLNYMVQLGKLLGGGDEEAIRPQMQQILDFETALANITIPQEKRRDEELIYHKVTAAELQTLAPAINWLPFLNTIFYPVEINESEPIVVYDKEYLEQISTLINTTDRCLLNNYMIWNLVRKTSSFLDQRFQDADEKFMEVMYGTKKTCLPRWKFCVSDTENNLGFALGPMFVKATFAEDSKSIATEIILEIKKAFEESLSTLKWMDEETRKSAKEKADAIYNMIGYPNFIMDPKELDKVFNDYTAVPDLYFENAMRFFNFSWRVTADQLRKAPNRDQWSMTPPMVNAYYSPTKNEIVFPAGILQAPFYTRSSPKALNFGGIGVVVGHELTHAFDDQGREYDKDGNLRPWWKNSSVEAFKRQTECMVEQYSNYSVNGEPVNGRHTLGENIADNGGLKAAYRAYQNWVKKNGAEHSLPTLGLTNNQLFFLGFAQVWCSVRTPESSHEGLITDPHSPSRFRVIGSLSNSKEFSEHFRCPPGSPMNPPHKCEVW
The data set can be described thus: Endothelin-converting enzyme inhibition (CEREP). It counts as biochemical. The note with it: means of two experiments minimum, s.d.±10%; read-out: Selectivity IC50 hECE.

The next data set can be described thus: Solubility in PBS pH 7.4. Format: physicochemical. The note with it: aqueous buffer, kinetic from dmso stock. The procedure: Ten microlitre of a 10 mM solution in DMSO of the compound are diluted either in 490 μl of PBS pH 7.4 or in organic solvent MeOH in a 700 μl-microtube (in triplicate). The tubes are gently shaken 24 h at room temperature, then centrifuged for 5 min at 4,000 r.p.m. The mixtures are filtered over 0.45 μm filters (Millex-LH Millipore). Twenty microlitre of sample are diluted in 180 μl of MeOH. The solubility is determined by the ratio of mass signal area PBS/ organic solvent. Forty microlitre of a 10 mM solution in DMSO of the compound were diluted in 1.960 ml of a 1/1 octanol /PBS at pH 7.4 mixture. The mixture was gently shaken 2 h at room temperature. Twenty microlitre of each phase was diluted in 480 μl of MeOH and analysed by LC–MS. Each compound is tested in triplicate. Log D was determined as the logarithm of the ratio of concentration of product in octanol and PBS respectively, determined by mass signals.

Data set [1] has as its system human SY5Y neuroblastoma cells. The data set is described as follows: Aβ1–40 secretion by differentiated SH-SY5Y cells (ELISA). The note with it: 10 μM and 30 μM, 48 h. It counts as cell-based. The procedure:
The human neuroblastoma cell lines SH-SY5Y were provided from ATCC (cat. no. crl2266) with a Certificate of Analysis and not checked in the lab for mycoplasma contamination. […] SH-SY5Y were seeded in a 96-well plate at 200,000 cells per cm^2. […] Differentiated cells were then incubated with compounds at 10 μM and 30 μM in presence of 0.1% DMSO.
A general note: An ELISA detects its analyte on a solid surface through an enzyme-linked reagent.

On to `O=C(C[C@@H](Cc1ccc2ccccc2c1)n1cc(CNC(=O)c2ccc(F)cc2)nn1)NO` [Compound 1], for which the IC50 (as a rule, the point on the concentration scale where inhibition reaches its midpoint) on human ACE was greater than 10 µM; at recombinant human ECE-1 it was 6.5 µM. Moreover, the solubility – broadly, how much of the substance goes into solution per volume – at 24 h in the data set “Solubility in PBS pH 7.4” amounted to 58 µM (≈ 26 µg/mL). In addition, the “Aβ1–40 in culture supernatants” value in data set [1] is reported as “significant elevations; also recorded: significantly increased; also recorded: dose-dependent increase”.
